Data: patent US20250320184A1 (SIRONAX LTD., priority 2022, published 2025)

What follows are compounds tested against T1, SARM1 (50-724) (Homo sapiens, UniProt Q6SZW1) (assay: biochemical).
T1 sequence (Q6SZW1 50-724): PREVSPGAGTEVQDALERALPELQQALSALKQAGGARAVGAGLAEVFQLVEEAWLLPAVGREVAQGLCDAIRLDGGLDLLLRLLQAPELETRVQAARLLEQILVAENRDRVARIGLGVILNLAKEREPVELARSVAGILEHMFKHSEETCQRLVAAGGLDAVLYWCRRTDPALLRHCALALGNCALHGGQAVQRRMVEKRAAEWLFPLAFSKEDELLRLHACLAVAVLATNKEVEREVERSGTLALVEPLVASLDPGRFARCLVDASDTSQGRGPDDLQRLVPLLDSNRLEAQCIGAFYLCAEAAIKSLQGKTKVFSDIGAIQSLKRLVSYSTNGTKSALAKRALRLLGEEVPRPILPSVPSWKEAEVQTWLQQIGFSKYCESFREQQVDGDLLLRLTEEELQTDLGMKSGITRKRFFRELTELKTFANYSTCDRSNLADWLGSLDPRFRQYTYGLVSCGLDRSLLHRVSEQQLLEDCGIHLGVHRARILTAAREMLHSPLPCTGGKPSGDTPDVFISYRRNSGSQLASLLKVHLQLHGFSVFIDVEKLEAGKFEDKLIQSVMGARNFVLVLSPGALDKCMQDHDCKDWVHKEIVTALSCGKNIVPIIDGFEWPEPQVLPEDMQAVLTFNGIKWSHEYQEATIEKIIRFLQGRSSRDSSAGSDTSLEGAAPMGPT
Description: An enzymatic assay was performed in a 384-well plate using Dulbecco's phosphate-buffered saline (PBS) as the reaction buffer. […] The reaction was initiated by adding a mixture of 200 μM nicotinamide mononucleotide (NMN) as activator and 100 μM NAD^+ as substrate. After 1 h of incubation at room temperature, the reaction was terminated with 10 times volume of 70% acetonitrile, then centrifuged at 3800 rpm for 10 min.

IC50 [nM]	SMILES
> 1000	Cc1c2ccc(NC(C)c3nc(Cl)c(Cl)s3)cc2nn1CC(N)=O (single isomer, unassigned) [Compound 312B]
100 to 500	CC(Nc1ccc2c(c1)NC(=O)CCC2)c1nc(Cl)c(Cl)s1 (racemic) [Compound 229, 8-[1-(4,5-dichlorothiazol-2-yl)ethylamino]-1,3,4,5-tetrahydro-1-benzazepin-2-one]
< 100	Cc1nc(C(C)Nc2ccc3c(C)n(CC(N)=O)nc3c2)sc1Cl (single isomer, unassigned) [Compound 362]
100 to 500	COc1nccc2ccc(NC(C)c3c(Cl)nn(C)c3Cl)cc12 (racemic) [Compound 248, N-(1-(3,5-dichloro-1-methyl-1H-pyrazol-4-yl)ethyl)-1-methoxyisoquinolin-7-amine]
< 100	CC(Nc1cc(F)c2ncn(CC(N)=O)c(=O)c2c1)c1ccc(F)c(Cl)c1Cl (racemic) [Compound 351, 2-(6-((1-(2,3-dichloro-4-fluorophenyl)ethyl)amino)-8-fluoro-4-oxoquinazolin-3(4H)-yl)acetamide]
> 1000	C[C@H](Nc1ccc2c(c1)NC(=O)C2(C)C)c1nc(Cl)c(Cl)s1 (single isomer, unassigned) [Compound 234A]
< 100	CC(Nc1ccc2cc[nH]c(=O)c2c1)c1nc(Cl)c(Cl)s1 (racemic) [Compound 187, 7-((1-(4,5-dichlorothiazol-2-yl)ethyl)amino)isoquinolin-1(2H)-one]
< 100	CC(Nc1ccc2nc[nH]c(=O)c2c1)c1c(Cl)ccc(F)c1Cl (racemic) [Example 193, 6-((1-(2,6-dichloro-3-fluorophenyl)ethyl)amino)quinazolin-4(3H)-one]
< 100	Cc1c2ccc(NC(C)c3nc(Cl)c(Cl)s3)cc2nn1[C@@H]1CC[C@@H](O)C1 (stereo in doubt) [Compound 335, 3-(6-((1-(4,5-dichlorothiazol-2-yl)ethyl)amino)-3-methyl-2H-indazol-2-yl)cyclopentan-1-ol]
100 to 500	Cc1n[nH]c(=O)c2cc(NC(CC(O)CCO)c3nc(Cl)c(Cl)s3)ccc12 (mixture of isomers) [Example 293, 7-((1-(4,5-dichlorothiazol-2-yl)-3,5-dihydroxypentyl)amino)-4-methylphthalazin-1(2H)-one]
< 100	Cc1nn(C(=O)c2ccncc2)c2cc(NC(C)c3nc(Cl)c(Cl)s3)ccc12 (racemic) [Compound 331, (6-((1-(4,5-dichlorothiazol-2-yl)ethyl)amino)-3-methyl-1H-indazol-1-yl)(pyridin-4-yl)methanone]
< 100	CC(Nc1cc(F)c2ncn(-c3nncs3)c(=O)c2c1)c1nc(Cl)c(Cl)s1 (racemic) [Example 369, 6-((1-(4,5-dichlorothiazol-2-yl)ethyl)amino)-8-fluoro-3-(1,3,4-thiadiazol-2-yl)quinazolin-4(3H)-one]
< 100	CC(Nc1cc(F)c2c(c1)C(=O)NC2(C)C)c1nc(Cl)c(Cl)s1 (racemic) [Compound 318, 6-((1-(4,5-dichlorothiazol-2-yl)ethyl)amino)-4-fluoro-3,3-dimethylisoindolin-1-one]
< 100	CC(Nc1ccc2c(c1)c(C(N)=O)nn2C)c1nc(Cl)c(Cl)s1 (racemic) [Compound 310, 5-((1-(4,5-dichlorothiazol-2-yl)ethyl)amino)-1-methyl-1H-indazole-3-carboxamide]
100 to 500	CC(Nc1ccc2cc[nH]c(=O)c2c1)c1nc(Cl)c(Cl)n1C (racemic) [Compound 233, 7-((1-(4,5-dichloro-1-methyl-1H-imidazol-2-yl)ethyl)amino)isoquinolin-1(2H)-one]
> 1000	CC(Nc1cc(F)c2ncn(-c3ccn[nH]3)c(=O)c2c1)c1nc(Cl)c(Cl)s1 (single isomer, unassigned) [Example 356A]

Continued, compound first:

SMILES	IC50 [nM]
CC(Nc1ccc2cc[nH]c(=O)c2c1)c1nn2c(c1Cl)CCCC2 (racemic) [Compound 232, 7-((1-(3-chloro-4,5,6,7-tetrahydropyrazolo[1,5-a]pyridin-2-yl)ethyl)amino)isoquinolin-1(2H)-one]	100 to 500
O=C1NCCc2ccc(NS(=O)(=O)N3C4CCCC3CC4)cc21 [Example 166, N-(1-oxo-1,2,3,4-tetrahydroisoquinolin-7-yl)-8-azabicyclo[3.2.1]octane-8-sulfonamide]	> 1000
CC(Nc1ccc2cc[nH]c(=O)c2c1)c1nc2c(s1)CCCC2 (racemic) [Compound 236, 7-((1-(4,5,6,7-tetrahydrobenzo[d]thiazol-2-yl)ethyl)amino)isoquinolin-1(2H)-one]	100 to 500
O=C1NCCc2ccc(NS(=O)(=O)c3cc(F)c(F)c(F)c3)cc21 [Compound 34, 3,4,5-trifluoro-N-(1-oxo-1,2,3,4-tetrahydroisoquinolin-7-yl)benzenesulfonamide]	> 1000
Cc1c(Cl)cccc1S(=O)(=O)Nc1ccc2c(c1)C(=O)NCC2 [Example 5A, 3-chloro-2-methyl-N-(1-oxo-1,2,3,4-tetrahydroisoquinolin-7-yl)benzenesulfonamide]	< 100
CC(Nc1ccc2cc[nH]c(=O)c2c1)c1cccc(Cl)c1Cl (racemic) [Example 103, 7-((1-(2,3-dichlorophenyl)ethyl)amino)isoquinolin-1(2H)-one]	< 100
CC(Nc1ccc2cnn(C)c(=O)c2c1)c1cccc(Cl)c1Cl (racemic) [Example 149, 7-((1-(2,3-dichlorophenyl)ethyl)amino)-2-methylphthalazin-1(2H)-one]	100 to 500
CC1(C)CN(S(N)(=O)=O)c2cc(NS(=O)(=O)c3cccc(Cl)c3Cl)ccc21 [Compound 319, 6-((2,3-dichlorophenyl)sulfonamido)-3,3-dimethylindoline-1-sulfonamide]	< 100
CC(Nc1ccc2cc[nH]c(=O)c2c1)c1ccccc1F (racemic) [Example 115, 7-((1-(2-fluorophenyl)ethyl)amino)isoquinolin-1(2H)-one]	> 1000
O=c1[nH]cc(F)c2ccc(NS(=O)(=O)c3cccc(Cl)c3Cl)cc12 [Compound 62, 2,3-dichloro-N-(4-fluoro-1-oxo-1,2-dihydroisoquinolin-7-yl)benzenesulfonamide]	< 100
CC1(C)CC(O)c2cc(NS(=O)(=O)c3cccc(Cl)c3Cl)ccc21 (racemic) [Compound 274, 2,3-dichloro-N-(3-hydroxy-1,1-dimethyl-2,3-dihydro-1H-inden-5-yl)benzenesulfonamide]	< 100
CC(Nc1ccc2nc[nH]c(=O)c2n1)c1c(F)ccc(Cl)c1Cl (racemic) [Compound 349, 6-((1-(2,3-dichloro-6-fluorophenyl)ethyl)amino)pyrido[3,2-d]pyrimidin-4(3H)-one]	< 100
CC1Cc2ccc(NS(=O)(=O)c3cccc(Cl)c3Cl)cc2C(=O)N1 (stereo not shown) [Compound 19, 2,3-dichloro-N-(3-methyl-1-oxo-1,2,3,4-tetrahydroisoquinolin-7-yl)benzenesulfonamide]	100 to 500
O=c1[nH]ccc2ccc(NS(=O)(=O)c3cccc(Cl)c3Cl)cc12 [Compound 22, 2,3-dichloro-N-(1-oxo-1,2-dihydroisoquinolin-7-yl)benzenesulfonamide]	< 100
C[C@H](Nc1ccc2ccnc(O)c2c1)c1cccc(Cl)c1 [Compound 92, (S)-7-((1-(3-chlorophenyl)ethyl)amino)isoquinolin-1-ol]	100 to 500
COc1ccc(NS(=O)(=O)c2cccc(Cl)c2Cl)cc1C(N)=O [Compound 86, 5-((2,3-dichlorophenyl)sulfonamido)-2-methoxybenzamide]	100 to 500
Cc1cc(F)cc(C(CO)Nc2ccc3c(c2)C(=O)NCC3)c1 (stereo not shown) [Example 163, 7-((1-(3-fluoro-5-methylphenyl)-2-hydroxyethyl)amino)-3,4-dihydroisoquinolin-1(2H)-one]	> 1000
O=S(=O)(Nc1ccc2c(c1)C(O)CCC2)c1cccc(Cl)c1Cl (racemic) [Compound 56, 2,3-dichloro-N-(8-hydroxy-5,6,7,8-tetrahydronaphthalen-2-yl)benzenesulfonamide]	< 100
NC(=O)c1cccc2ccc(NS(=O)(=O)c3cccc(Cl)c3Cl)cc12 [Compound 87, 7-((2,3-dichlorophenyl)sulfonamido)-1-naphthamide]	100 to 500
Cc1ccnc2cc(NS(=O)(=O)c3cccc(Cl)c3Cl)ccc12 [Compound 16, 2,3-dichloro-N-(4-methylquinolin-7-yl)benzenesulfonamide]	100 to 500
Cc1c(F)cccc1S(=O)(=O)Nc1ccc2c(c1)NC(=O)CC2 [Compound 3, 3-fluoro-2-methyl-N-(2-oxo-1,2,3,4-tetrahydroquinolin-7-yl)benzenesulfonamide]	100 to 500
O=C1NCCc2ccc(NC(c3ccccc3)c3ccccc3)cc21 [Example 124, 7-(benzhydrylamino)-3,4-dihydroisoquinolin-1(2H)-one]	> 1000
Cc1cc(F)cc(C(C)Nc2ccc3c(c2)C(=O)NCC3)c1 (racemic) [Example 93, 7-((1-(3-fluoro-5-methylphenyl)ethyl)amino)-3,4-dihydroisoquinolin-1(2H)-one]	500 to 1000
CC(Nc1ccc2nc[nH]c(=O)c2n1)c1c(Cl)ccc(F)c1Cl (single isomer, unassigned) [Compound 382]	< 100
